SMILES strings stand for the structures.

By EC50 is commonly meant the concentration giving half of the maximal effect. Higher therefore signals a less potent agent.

The assay concerns the target T1, human PPARgamma (Homo sapiens, UniProt P37231).
T1 construct: amino acids 1152-Y475; expressed in transfected cells; host or cells: HEK (human embryonic kidney) cells, transiently transfected with pcDNA3-GAL4-humanPPARgammaLBD
T1 sequence (P37231 182-477 isoform P37231-2 limits assumed): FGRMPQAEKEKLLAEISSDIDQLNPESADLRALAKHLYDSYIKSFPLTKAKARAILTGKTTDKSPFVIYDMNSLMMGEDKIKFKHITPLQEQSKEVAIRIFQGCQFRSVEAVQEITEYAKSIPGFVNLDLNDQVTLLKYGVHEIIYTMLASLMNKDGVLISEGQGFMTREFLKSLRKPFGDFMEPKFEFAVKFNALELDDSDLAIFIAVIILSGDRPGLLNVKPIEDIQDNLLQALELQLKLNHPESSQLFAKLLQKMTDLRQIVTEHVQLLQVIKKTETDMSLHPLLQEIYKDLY
As to the kind of experiment: cellular PPARgamma assay (transiently transfected HEK cells, luciferase reporter). It is filed as cell-based. From the text:
A transient transfection system is employed to determine the cellular PPARgamma activity of PPAR agonists. It is based on the use of a luciferase reporter plasmid (pGL3basic-5xGAL4-TK) and of a PPARgamma expression plasmid (pcDNA3-GAL4-humanPPARgammaLBD). Both plasmids are transiently transfected into human embryonic kidney cells (HEK cells). There is then expression in these cells of the fusion protein GAL4-humanPPARgammaLBD which binds to the GAL4 binding sites of the reporter plasmid. In the presence of a PPARgamma-active ligand, the activated fusion protein GAL4-humanPPARgammaLBD induces expression of the luciferase reporter gene, which can be detected in the form of a chemiluminescence signal after addition of a luciferase substrate. As a difference from the stably transfected PPARalpha reporter cell line, in the cellular PPARgamma assay the two components (luciferase reporter plasmid and PPARgamma expression plasmid) are transiently transfected into HEK cells because stable and permanent expression of the PPARgamma fusion protein is cytotoxic.
The luciferase reporter plasmid pGL3basic-5xGAL4-TK is based on the vector pGL3basic from Promega. The reporter plasmid is prepared by cloning five binding sites of the yeast transcription factor GAL4 (each binding site with the sequence 5′-CTCGGAGGACAGTACTCCG-3′), together with a 160 bp-long thymidine kinase promoter section (Genbank Accession #AF027128) 5′-upstream into pGL3basic. 3′-downstream of the thymidine kinase promoter is the complete luciferase gene from Photinus pyralis (Genbank Accession #M15077) which is already a constituent of the plasmid pGL3basic used. The cloning and sequencing of the reporter plasmid pGL3basic-5xGAL4-TK took place in analogy to the description in Sambrook J. et. al. (Molecular cloning, Cold Spring Harbor Laboratory Press, 1989).
The PPARgamma expression plasmid pcDNA3-GAL4-humanPPARgammaLBD was prepared by first cloning the cDNA coding for amino acids 1-147 of the yeast transcription factor GAL4 (Genbank Accession #P04386) into the plasmid pcDNA3 (from Invitrogen) 3′-downstream of the cytomegalovirus promoter. Subsequently, the cDNA of the ligand-binding domain (LBD) of the human PPARgamma receptor (amino acids […]; Accession #g1480099) 3′-downstream of the GAL4 DNA binding domain. Cloning and sequencing of the PPARgamma expression plasmid pcDNA3-GAL4-humanPPARgammaLBD again took place in analogy to the description in Sambrook J. et. al. (Molecular cloning, Cold Spring Harbor Laboratory Press, 1989). Besides the luciferase reporter plasmid pGL3basic-5xGAL4-TK and the PPARgamma expression plasmid pcDNA3-GAL4-humanPPARgammaLBD, also used for the cellular PPARgamma assay are the reference plasmid pRL-CMV (from Promega) and the plasmid pBluescript SK(+) from Stratagene. All four plasmids were prepared using a plasmid preparation kit from Qiagen, which ensured a plasmid quality with a minimal endotoxin content, before transfection into HEK cells.
The activity of PPARgamma agonists was then determined in a 4-day assay which is described below. Before the transfection, HEK cells are cultivated in DMEM (#41965-039, Invitrogen) which is mixed with the following additions: 10% FCS (#16000-044, Invitrogen), 1% penicillin-streptomycin solution (#15140-122, Invitrogen) and 2 mM L-glutamine (#25030-024, Invitrogen).
Firstly, solution A, a transfection mixture which contains all four plasmids previously described in addition to DMEM, is prepared. The following amounts are used to make up 3 ml of solution A for each 96 well microtiter plate for an assay: 2622 μl of antibiotic- and serum-free DMEM (#41965-039, Invitrogen), 100 μl of reference plasmid pRL-CMV (1 ng/μl), 100 μl of luciferase reporter plasmid pGL3basic-5xGAL4-TK (10 ng/μl), 100 μl of PPARgamma expression plasmid pcDNA3-GAL4-humanPPARgammaLBD (100 ng/μl) and 78 μl of plasmid pBluescript SK(+) (500 ng/μl). […]
(In general: In a reporter assay the amount or activity of a reporter protein is the signal.)
For `Cc1nc(-c2ccc(C(F)(F)F)cc2)sc1COc1ccc(S(=O)(=O)Nc2nnc(C(C)C)s2)cc1` [Example 1, N-(5-Isopropyl-[1,3,4]thiadiazol-2-yl)-4-[4-methyl-2-(4-trifluoromethyl-phenyl)-thiazol-5-ylmethoxy]-benzenesulfonamide], the EC50 came to 50 nM. In other words, the double-digit nanomolar range.

With `CC(C)c1nnc(NS(=O)(=O)c2ccc(OCc3ccc(Oc4ccc(C(F)(F)F)cc4)cc3)cc2)s1` [Example 4, N-(5-Isopropyl-[1,3,4]thiadiazol-2-yl)-4-[4-(4-trifluoromethyl-phenoxy)-benzyloxy]-benzenesulfonamide], the half-maximal effective concentration (EC50) came out at 460 nM.

For the compound `COc1ccc2c(COc3ccc(S(=O)(=O)Nc4nnc(C(C)C)s4)cc3)coc2c1` [Example 3, N-(5-Isopropyl-[1,3,4]thiadiazol-2-yl)-4-(6-methoxy-benzofuran-3-ylmethoxy)-benzenesulfonamide], the EC50 was found to be 460 nM.

Regarding `COc1ccc(-c2nc(COc3ccc(S(=O)(=O)Nc4nnc(C(C)C)s4)cc3)no2)cc1` [Example 9, N-(5-Isopropyl-[1,3,4]thiadiazol-2-yl)-4-[5-(4-methoxy-phenyl)-[1,2,4]oxadiazol-3-ylmethoxy]-benzenesulfonamide], the midpoint of the response, the EC50, lay at 50 nM. This EC50 is about 9.2-fold lower than that of the compound before.

Compound `CCc1oc(-c2cccc(C(F)(F)F)c2)nc1COc1ccc(S(=O)(=O)Nc2nnc(C(C)C)s2)cc1` [Example 14, 4-[5-Ethyl-2-(3-trifluoromethyl-phenyl)-oxazol-4-ylmethoxy]-N-(5-isopropyl-[1,3,4]thiadiazol-2-yl)-benzenesulfonamide] had an EC50 of 1 nM.

`COc1ccc(-c2nc(COc3ccc(S(=O)(=O)Nc4nnc(C(C)C)s4)cc3)co2)cc1` [Example 13, N-(5-Isopropyl-[1,3,4]thiadiazol-2-yl)-4-[2-(4-methoxy-phenyl)-oxazol-4-ylmethoxy]-benzenesulfonamide]: the EC50 came out at 1970 nM. Compared with the last compound, the EC50 is about 2000-fold higher.

(Values after patent US7910612B2, “4-oxy-N-[1,3,4]-thiadiazol-2-yl-benzene sulfonamides, pharmaceutical compositions and methods for their therapeutic use” (Sanofi-Aventis, priority 2005, dated 2011).)
